Patent US10538528B2, “5H-pyrrolo[2,3-D]pyrimidin-6(7H)-one derivative” (Taiho Pharmaceutical Co., Ltd., priority 2016, dated 2020)

Columns and labels:
Type in all cases: biochemical
S6K1 = S6K1 (Homo sapiens (Human), UniProt P23443); test: Inhibitory effects on S6K1 kinase activity (QSS Assist FP assay kit); conditions: S6K1, ATP 25 μM; read-out: S6K inhibitory activity IC50
Experimental: Inhibitory activity of the compound according to the present invention on S6K1 kinase activity in vitro was assayed using the QSS Assist™ FP assay kit (Carna Biosciences, Inc.).
In the inhibition assay for inhibitory activity of the compound, the test compound was diluted by serial dilution with dimethyl sulfoxide (DMSO). Subsequently, an S6K protein, a substrate peptide (final concentration: 100 nM), magnesium chloride (final concentration: 5 mM), ATP (final concentration: 25 μM), and the solution of the test compound in DMSO (final DMSO concentration: 5%) were added to the kinase reaction buffer (20 mM HEPES (pH 7.4), 2 mM dithiothreitol, 0.01% Tween-20), and the mixture was incubated at 25° C. for 30 minutes to perform the kinase reaction. The IMAP Progressive Binding Reagent diluted to 400-fold with the IMAP Progressive Binding Buffer A (Molecular Devices, LLC) was added thereto to terminate the kinase reaction. The reaction product was allowed to stand at room temperature in the dark for 120 minutes and assayed with the use of PHERAstar (BMG LABTECH; excitation wavelength: 485 nm; detection wavelength: 520 nm). The level of phosphorylation reaction was determined based on the degree of fluorescence polarization, and the concentration of the compound at which phosphorylation could be inhibited by 50% was defined as the IC50 level (nM) and shown in Table 4.

Rsk1 = Rsk1 (Homo sapiens (Human), UniProt Q15418); test: Inhibitory effects on Rsk1 kinase activity (QSS Assist FP assay kit); conditions: Rsk1, ATP 30 μM; read-out: Rsk inhibitory activity IC50
Chain of Rsk1 (Q15418 whole entry): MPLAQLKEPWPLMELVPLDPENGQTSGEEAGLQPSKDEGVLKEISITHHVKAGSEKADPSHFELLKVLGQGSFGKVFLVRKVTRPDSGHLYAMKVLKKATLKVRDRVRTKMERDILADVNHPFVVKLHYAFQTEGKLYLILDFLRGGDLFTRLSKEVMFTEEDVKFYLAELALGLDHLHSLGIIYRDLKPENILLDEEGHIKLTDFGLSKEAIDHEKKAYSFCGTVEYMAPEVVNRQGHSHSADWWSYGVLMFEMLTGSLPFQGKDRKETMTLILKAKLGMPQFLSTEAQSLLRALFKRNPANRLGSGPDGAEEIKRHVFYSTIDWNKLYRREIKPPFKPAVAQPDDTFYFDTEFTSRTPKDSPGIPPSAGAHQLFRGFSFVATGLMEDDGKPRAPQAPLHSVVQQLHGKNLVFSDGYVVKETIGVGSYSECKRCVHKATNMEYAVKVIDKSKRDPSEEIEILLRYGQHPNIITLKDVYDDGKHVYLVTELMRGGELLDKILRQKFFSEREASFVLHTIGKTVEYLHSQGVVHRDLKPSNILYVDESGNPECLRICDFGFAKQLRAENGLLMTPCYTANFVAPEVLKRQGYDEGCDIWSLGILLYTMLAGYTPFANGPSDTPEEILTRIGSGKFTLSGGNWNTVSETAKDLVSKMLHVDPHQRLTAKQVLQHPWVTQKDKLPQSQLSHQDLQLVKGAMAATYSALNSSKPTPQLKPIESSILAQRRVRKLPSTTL
Experimental: Inhibitory activity of the compound according to the present invention on Rsk1 kinase activity in vitro was assayed using the QSS Assist™ FP assay kit (Carna Biosciences, Inc.).
In the inhibition assay of inhibitory activity of the compound, the test compound was diluted by serial dilution with dimethyl sulfoxide (DMSO). Subsequently, an Rsk1 protein, a substrate peptide (final concentration: 100 nM), magnesium chloride (final concentration: 10 mM), ATP (final concentration: 30 μM), and the solution of the test compound in DMSO (DMSO final concentration: 5%) were added to the kinase reaction buffer (20 mM HEPES (pH 7.4), 2 mM dithiothreitol, 0.01% Tween-20), and the mixture was incubated at 25° C. for 40 minutes to perform the kinase reaction. The IMAP Progressive Binding Reagent diluted to 400-fold with the IMAP Progressive Binding Buffer A (Molecular Devices, LLC) was added to terminate the kinase reaction.

human Akt1 = human Akt1 (Homo sapiens (Human), UniProt P31749); test: Inhibitory effects on Akt1 kinase activity (TR-FRET, biotinylated Crosstide); conditions: Akt1, ATP 150 μM, pre-incubation 120 minutes at 25° C.; read-out: AKT inhibitory activity IC50
Chain of human Akt1 (P31749 whole entry): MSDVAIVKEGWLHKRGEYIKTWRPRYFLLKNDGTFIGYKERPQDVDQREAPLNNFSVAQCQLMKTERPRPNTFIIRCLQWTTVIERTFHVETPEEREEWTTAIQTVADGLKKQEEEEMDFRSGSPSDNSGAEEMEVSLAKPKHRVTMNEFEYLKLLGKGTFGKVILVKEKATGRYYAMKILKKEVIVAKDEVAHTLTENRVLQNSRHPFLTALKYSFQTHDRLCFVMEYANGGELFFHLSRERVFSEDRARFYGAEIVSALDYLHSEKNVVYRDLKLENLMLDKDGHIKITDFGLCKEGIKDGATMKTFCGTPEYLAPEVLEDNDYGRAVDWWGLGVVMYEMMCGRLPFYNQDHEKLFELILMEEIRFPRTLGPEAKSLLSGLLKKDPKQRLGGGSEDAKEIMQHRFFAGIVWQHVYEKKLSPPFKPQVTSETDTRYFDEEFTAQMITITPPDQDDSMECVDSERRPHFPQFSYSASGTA
Experimental: Akt1 was prepared and assays of inhibitory activity of the compound according to the present invention against Akt1 kinase activity in vitro were conducted according to the method described in Biochem. J., vol. 385, pp. 399-408, 2005 and Cancer Res., vol. 68, pp. 2366-2374, 2008. In the preparation of Akt1 protein, human Akt1 tagged with the middle T antigen was expressed in an insect cell Sf9, Akt1 was prepared through affinity purification and activation by PDK1, and the resultant was stored at −80° C. until the inhibition assays of the compounds. In the inhibition assay of the compounds, Akt1 and the compound according to the present invention were subjected to pre-incubation at 25° C. for 120 minutes in a reaction buffer (15 mM Tris-HCl, pH 7.5, 0.01% Tween-20, 2 mM DTT). Subsequently, biotinylated Crosstide (biotin-[…], Millipore), MgCl2, and ATP were added as substrates at the final concentration of 500 nM, 10 mM, and 150 μM, respectively, and the reaction was allowed to proceed at 25° C. for 60 minutes. EDTA was added to the final concentration of 40 mM to terminate the reaction, a detection liquid containing the Eu-anti-phospho-Crosstide antibody (PerkinElmer) and SureLight APC-SA (PerkinElmer) at the final concentration of 0.5 nM and 62.5 nM, respectively was added, and the reaction was allowed to proceed at room temperature for 2 hours. In the end, the fluorescence levels irradiated with an excitation light of 337 nm were assayed at two different wavelength levels (i.e., 620 nm and 665 nm) using PI-HERAstar FS (BMG LABTECH) or PHERAstar (BMG LABTECH). The level of the phosphorylation reaction was determined on the basis of the ratio of fluorescence levels at two wavelength levels, and the concentration of the compound at which phosphorylation could be inhibited by 50% was defined as the IC50 level (nM) and shown in Table 2.
As reference compounds, conventional Comparative Example A (WO 2010/056563 (Example 31)) and Comparative Example B having inhibitory activity against Akt were used.

Chain of S6K1 (P23443 whole entry): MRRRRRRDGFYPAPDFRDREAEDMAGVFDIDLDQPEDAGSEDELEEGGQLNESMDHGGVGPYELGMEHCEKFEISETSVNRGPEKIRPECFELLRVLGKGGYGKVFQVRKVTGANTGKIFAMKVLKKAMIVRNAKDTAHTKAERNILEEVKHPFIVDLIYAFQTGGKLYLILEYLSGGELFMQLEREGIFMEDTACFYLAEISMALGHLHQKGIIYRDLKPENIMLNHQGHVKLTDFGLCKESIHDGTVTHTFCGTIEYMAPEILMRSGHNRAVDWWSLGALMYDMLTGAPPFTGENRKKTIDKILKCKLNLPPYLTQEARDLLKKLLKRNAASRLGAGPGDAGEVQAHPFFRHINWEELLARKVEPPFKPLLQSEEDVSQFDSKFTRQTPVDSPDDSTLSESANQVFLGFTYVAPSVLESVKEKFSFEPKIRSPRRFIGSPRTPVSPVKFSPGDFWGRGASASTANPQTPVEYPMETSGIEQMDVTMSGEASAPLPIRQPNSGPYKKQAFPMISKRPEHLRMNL

COc1cc(-c2ccc(NCCN3CCCC3)c(C3CCN(c4ncnc5c4C(C)C(=O)N5)CC3)n2)c(F)cn1 (stereo not drawn) [Compound 16, 4-(4-(5′-Fluoro-2′-methoxy-5-((2-(pyrrolidin-1-yl)ethyl)amino)-[2,4′-bipyridin]-6-yl)piperidin-1-yl)-5-methyl-5H-pyrrolo[2,3-d]pyrimidin-6(7H)-one]
IC50 (S6K1): 0.7 nM
IC50 (Rsk1): 0.8 nM
IC50 (human Akt1): 1.9 nM

CC1C(=O)Nc2ncnc(N3CCC(c4nc(-c5cccnc5F)ccc4NCCN4CCCC4)CC3)c21 (stereo not drawn) [Compound 17, 4-(4-(2′-Fluoro-5-((2-(pyrrolidin-1-yl)ethyl)amino)-[2,3′-bipyridin]-6-yl)piperidin-1-yl)-5-methyl-5H-pyrrolo[2,3-d]pyrimidin-6(7H)-one]
IC50 (S6K1): 0.7 nM
IC50 (Rsk1): 1.1 nM
IC50 (human Akt1): 0.6 nM

CC1C(=O)Nc2ncnc(N3CCC(c4nc(-c5ccsc5)ccc4NCCN4CCCC4)CC3)c21 (stereo not drawn) [Compound 18, 5-Methyl-4-(4-(3-((2-(pyrrolidin-1-yl)ethyl)amino)-6-(thiophen-3-yl)pyridin-2-yl)piperidin-1-yl)-5H-pyrrolo[2,3-d]pyrimidin-6(7H)-one]
IC50 (S6K1): 0.8 nM
IC50 (Rsk1): 1.4 nM
IC50 (human Akt1): 0.5 nM

CC1C(=O)Nc2ncnc(N3CCC(c4nc(-c5cncc(F)c5)ccc4NCCN4CCCC4)CC3)c21 (stereo not drawn) [Compound 19, 4-(4-(5′-Fluoro-5-((2-(pyrrolidin-1-yl)ethyl)amino)-[2,3′-bipyridin]-6-yl)piperidin-1-yl)-5-methyl-5H-pyrrolo[2,3-d]pyrimidin-6(7H)-one]
IC50 (S6K1): 0.5 nM
IC50 (Rsk1): 0.9 nM
IC50 (human Akt1): 0.4 nM

CC1C(=O)Nc2ncnc(N3CCC(c4nc(-c5cc(C(F)(F)F)nn5C)ccc4NCCN4CCCC4)CC3)c21 (stereo not drawn) [Compound 20, 5-Methyl-4-(4-(6-(1-methyl-3-(trifluoromethyl)-1H-pyrazol-5-yl)-3-((2-(pyrrolidin-1-yl)ethyl)amino)pyridin-2-yl)piperidin-1-yl)-5H-pyrrolo[2,3-d]pyrimidin-6(7H)-one]
IC50 (S6K1): 0.6 nM
IC50 (Rsk1): 0.9 nM
IC50 (human Akt1): 0.6 nM

COc1cncc(-c2ccc(NCCN(C)C)c(C3CCN(c4ncnc5c4C(C)C(=O)N5)CC3)n2)c1 (stereo not drawn) [Compound 21, 4-(4-(5-((2-(Dimethylamino)ethyl)amino)-5′-methoxy-[2,3′-bipyridin]-6-yl)piperidin-1-yl)-5-methyl-5H-pyrrolo[2,3-d]pyrimidin-6(7H)-one]
IC50 (S6K1): 0.7 nM
IC50 (Rsk1): 1.3 nM
IC50 (human Akt1): 4 nM

CC1C(=O)Nc2ncnc(N3CCC(c4nc(-c5ccsc5)ccc4NCCN(C)C)CC3)c21 (stereo not drawn) [Compound 23, 4-(4-(3-((2-(Dimethylamino)ethyl)amino)-6-(thiophen-3-yl)pyridin-2-yl)piperidin-1-yl)-5-methyl-5H-pyrrolo[2,3-d]pyrimidin-6(7H)-one]
IC50 (S6K1): 0.4 nM
IC50 (Rsk1): 1.5 nM
IC50 (human Akt1): 0.7 nM

CC(C)NCCNc1ccc(-c2nnc(C(F)F)o2)nc1C1CCN(c2ncnc3c2C(C)(C)C(=O)N3)CC1 [Compound 31, 4-(4-(6-(5-(Difluoromethyl)-1,3,4-oxadiazol-2-yl)-3-((2-(isopropylamino)ethyl)amino)pyridin-2-yl)piperidin-1-yl)-5,5-dimethyl-5H-pyrrolo[2,3-d]pyrimidin-6(7H)-one]
IC50 (S6K1): 0.6 nM
IC50 (Rsk1): 1.8 nM
IC50 (human Akt1): 7.6 nM

CC(C)NCCNc1ccc(-c2nnc(C(F)(F)F)o2)nc1C1CCN(c2ncnc3c2C(C)(C)C(=O)N3)CC1 [Compound 33, 4-(4-(3-((2-(Isopropylamino)ethyl)amino)-6-(5-(trifluoromethyl)-1,3,4-oxadiazol-2-yl)pyridin-2-yl)piperidin-1-yl)-5,5-dimethyl-5H-pyrrolo[2,3-d]pyrimidin-6(7H)-one]
IC50 (S6K1): 0.5 nM
IC50 (Rsk1): 1 nM
IC50 (human Akt1): 2.5 nM

CN(CCNc1ccc(-c2nnc(C(F)(F)F)o2)nc1C1CCN(c2ncnc3c2C(C)(C)C(=O)N3)CC1)C(C)(C)C [Compound 34, 4-(4-(3-((2-(Tert-butyl(methyl)amino)ethyl)amino)-6-(5-(trifluoromethyl)-1,3,4-oxadiazol-2-yl)pyridin-2-yl)piperidin-1-yl)-5,5-dimethyl-5H-pyrrolo[2,3-d]pyrimidin-6(7H)-one]
IC50 (S6K1): 0.4 nM
IC50 (Rsk1): 0.9 nM
IC50 (human Akt1): 1 nM

CC(C)(C)NCCNc1ccc(-c2nnc(C(F)F)s2)nc1C1CCN(c2ncnc3c2C(C)(C)C(=O)N3)CC1 [Compound 37, 4-(4-(3-((2-(Tert-butylamino)ethyl)amino)-6-(5-(difluoromethyl)-1,3,4-thiadiazol-2-yl)pyridin-2-yl)piperidin-1-yl)-5,5-dimethyl-5H-pyrrolo[2,3-d]pyrimidin-6(7H)-one]
IC50 (S6K1): 0.3 nM
IC50 (Rsk1): 0.5 nM
IC50 (human Akt1): 3.3 nM

CC(C)NCCNc1ccc(-c2nnc(C(F)F)s2)nc1C1CCN(c2ncnc3c2C(C)(C)C(=O)N3)CC1 [Compound 39, 4-(4-(6-(5-(Difluoromethyl)-1,3,4-thiadiazol-2-yl)-3-((2-(isopropylamino)ethyl)amino)pyridin-2-yl)piperidin-1-yl)-5,5-dimethyl-5H-pyrrolo[2,3-d]pyrimidin-6(7H)-one]
IC50 (S6K1): 0.3 nM
IC50 (Rsk1): 0.6 nM
IC50 (human Akt1): 4.1 nM

CC(C)(C)NCCNc1ccc(-c2nnc(C3CC3)s2)nc1C1CCN(c2ncnc3c2C(C)(C)C(=O)N3)CC1 [Compound 40, 4-(4-(3-((2-(Tert-butylamino)ethyl)amino)-6-(5-cyclopropyl-1,3,4-thiadiazol-2-yl)pyridin-2-yl)piperidin-1-yl)-5,5-dimethyl-5H-pyrrolo[2,3-d]pyrimidin-6(7H)-one]
IC50 (S6K1): 0.3 nM
IC50 (Rsk1): 0.6 nM
IC50 (human Akt1): 3.6 nM

CC(C)NCCNc1ccc(-c2noc(C(F)(F)F)n2)nc1C1CCN(c2ncnc3c2C(C)(C)C(=O)N3)CC1 [Compound 42, 4-(4-(3-((2-(Isopropylamino)ethyl)amino)-6-(5-(trifluoromethyl)-1,2,4-oxadiazol-3-yl)pyridin-2-yl)piperidin-1-yl)-5,5-dimethyl-5H-pyrrolo[2,3-d]pyrimidin-6(7H)-one]
IC50 (S6K1): 0.5 nM
IC50 (Rsk1): 1.2 nM
IC50 (human Akt1): 4.8 nM

CC(C)(C)NCCNc1ccc(-c2nc(C(F)(F)F)no2)nc1C1CCN(c2ncnc3c2C(C)(C)C(=O)N3)CC1 [Compound 43, 4-(4-(3-((2-(Tert-butylamino)ethyl)amino)-6-(3-(trifluoromethyl)-1,2,4-oxadiazol-5-yl)pyridin-2-yl)piperidin-1-yl)-5,5-dimethyl-5H-pyrrolo[2,3-d]pyrimidin-6(7H)-one]
IC50 (S6K1): 0.4 nM
IC50 (Rsk1): 0.4 nM
IC50 (human Akt1): 1 nM
